Assay results reported in article PMC11345399 (The Journal of Biological Chemistry, 2024).
Several values for one entry are separate records, joined by “and”; a condition that tells them apart may be missing. Equal values may be shown once.

How the values were obtained:
[1] = biological target: human mitochondrial RNA polymerase (h-mtRNAP) (Homo sapiens, UniProt O00411); format: biochemical
HRV-16 RdRp [2] = biological target: T1, HRV-16 RdRp (Human rhinovirus 16, UniProt Q82122); format: biochemical
EV-71 RdRp [3] = format: biochemical
SARS-CoV-2 RdRp = SARS-CoV-2 RdRp (Severe acute respiratory syndrome coronavirus 2, UniProt P0DTD1); format: biochemical
MERS-CoV RdRp = MERS-CoV RdRp (Middle East respiratory syndrome-related coronavirus, UniProt K9N7C7); format: biochemical
HRV-16 RdRp [4] = biological target: T1, HRV-16 RdRp; format: biochemical; remark: listed apart in the source
EV-71 RdRp [5] = format: biochemical; remark: listed apart in the source
RSV RdRp = RSV RdRp (Human respiratory syncytial virus A, UniProt P28887); format: biochemical
HMPV RdRp = HMPV RdRp (Human metapneumovirus, UniProt Q6WB93); format: biochemical
HPIV-3 RdRp = HPIV-3 RdRp (Human parainfluenza 3 virus, UniProt P12577); format: biochemical
PIV-5 RdRp = PIV-5 RdRp (Parainfluenza virus 5, UniProt Q88434); format: biochemical
HRV-16 RdRp [6] = biological target: T1, HRV-16 RdRp; format: biochemical; remark: listed apart in the source
EV-71 RdRp [7] = format: biochemical; remark: listed apart in the source
SARS-CoV-2 RdRp complex = SARS-CoV-2 RdRp complex (Severe acute respiratory syndrome coronavirus 2, UniProt P0DTD1)
MERS-CoV RdRp complex = MERS-CoV RdRp complex (Middle East respiratory syndrome-related coronavirus, UniProt K9N7C7)
HRV-16 RdRp (3Dpol) = HRV-16 RdRp (3Dpol) (Human rhinovirus 16, UniProt Q82122)
EV-71 RdRp (3Dpol) = EV-71 RdRp (3Dpol) (Enterovirus A71, UniProt E5RPG3)
RSV RdRp complex = RSV RdRp complex (Human respiratory syncytial virus A, UniProt P28887)
HMPV RdRp complex = HMPV RdRp complex (Human metapneumovirus, UniProt Q6WB93)
PIV-5 RdRp complex = PIV-5 RdRp complex (Parainfluenza virus 5, UniProt Q88434)

Sequence of human mitochondrial RNA polymerase (h-mtRNAP) (O00411 42-1230 limits assumed): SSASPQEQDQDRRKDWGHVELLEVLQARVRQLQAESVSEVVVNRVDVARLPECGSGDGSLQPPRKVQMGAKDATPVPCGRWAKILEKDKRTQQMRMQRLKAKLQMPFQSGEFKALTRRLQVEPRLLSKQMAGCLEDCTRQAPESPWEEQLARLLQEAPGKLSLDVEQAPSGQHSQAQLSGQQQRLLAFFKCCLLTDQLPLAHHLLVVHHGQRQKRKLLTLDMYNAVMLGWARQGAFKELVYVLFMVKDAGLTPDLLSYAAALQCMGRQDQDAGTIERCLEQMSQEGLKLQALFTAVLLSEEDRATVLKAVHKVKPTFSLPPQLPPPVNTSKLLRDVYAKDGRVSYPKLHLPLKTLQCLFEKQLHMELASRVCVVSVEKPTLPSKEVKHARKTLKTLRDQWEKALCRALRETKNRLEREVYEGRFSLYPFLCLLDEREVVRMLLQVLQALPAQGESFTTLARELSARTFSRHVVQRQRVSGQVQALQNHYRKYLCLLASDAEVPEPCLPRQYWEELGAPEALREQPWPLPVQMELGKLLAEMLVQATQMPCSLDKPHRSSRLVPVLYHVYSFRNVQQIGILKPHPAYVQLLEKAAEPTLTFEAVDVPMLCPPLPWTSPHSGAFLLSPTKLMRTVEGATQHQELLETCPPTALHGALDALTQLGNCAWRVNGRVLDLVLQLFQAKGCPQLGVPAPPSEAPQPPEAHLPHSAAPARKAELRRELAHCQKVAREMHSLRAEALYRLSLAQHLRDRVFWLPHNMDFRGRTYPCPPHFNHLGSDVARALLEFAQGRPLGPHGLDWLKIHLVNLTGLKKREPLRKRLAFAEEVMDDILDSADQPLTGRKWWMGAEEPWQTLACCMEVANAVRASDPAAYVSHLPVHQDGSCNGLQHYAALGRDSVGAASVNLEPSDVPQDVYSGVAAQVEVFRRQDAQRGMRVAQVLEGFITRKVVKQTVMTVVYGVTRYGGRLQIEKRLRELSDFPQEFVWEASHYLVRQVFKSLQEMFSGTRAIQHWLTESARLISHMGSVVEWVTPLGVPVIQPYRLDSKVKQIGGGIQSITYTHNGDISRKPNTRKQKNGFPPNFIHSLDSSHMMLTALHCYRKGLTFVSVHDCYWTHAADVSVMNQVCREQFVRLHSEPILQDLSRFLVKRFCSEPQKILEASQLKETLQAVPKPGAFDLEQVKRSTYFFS

N#C[C@]1(COP(=O)(O)OP(=O)(O)OP(=O)(O)O)O[C@@H](c2ccc3c(N)ncnn23)[C@H](O)[C@@H]1O [GS-646939]
Selectivity (fold), Vmax/Km ATP over Vmax/Km analog [1]: 1538 fold
CI average (CIavg) ± standard deviation (HRV-16 RdRp [2]): 0.04
Preference for GS-646939 over GS-443902 under competitive conditions (HRV-16 RdRp [2]): greater than 30 fold
CI average (CIavg) ± standard deviation (EV-71 RdRp [3]): 0.07
Preference for GS-646939 over GS-443902 under competitive conditions (EV-71 RdRp [3]): greater than 30 fold
Vmax (product fraction) of UTP incorporation at i + 1 (SARS-CoV-2 RdRp): 0.79 ± 0.036
Vmax (product fraction) of UTP incorporation at i + 1 (MERS-CoV RdRp): 0.91 ± 0.10
Pattern of inhibition of RNA primer extension after incorporation at position i (HRV-16 RdRp [4]): immediate chain-termination
Vmax (product fraction) of UTP incorporation at i + 1 (HRV-16 RdRp [4]): 0.83 ± 0.012
Pattern of inhibition of RNA primer extension after incorporation at position i (EV-71 RdRp [5]): immediate chain-termination
Vmax (product fraction) of UTP incorporation at i + 1 (EV-71 RdRp [5]): 0.81 ± 0.017
Pattern of inhibition of RNA primer extension after incorporation at position i (RSV RdRp): immediate chain termination
Vmax (product fraction) of UTP incorporation at i + 1 (RSV RdRp): 0.15 ± 0.0029
Pattern of inhibition of RNA primer extension after incorporation at position i (HMPV RdRp): immediate chain termination
Vmax (product fraction) of UTP incorporation at i + 1 (HMPV RdRp): 0.087 ± 0.030
Pattern of inhibition of RNA primer extension after incorporation at position i (HPIV-3 RdRp): immediate chain termination
Vmax (product fraction) of UTP incorporation at i + 1 (HPIV-3 RdRp): 0.61 ± 0.0099
Pattern of inhibition of RNA primer extension after incorporation at position i (PIV-5 RdRp): immediate chain termination
Vmax (product fraction) of UTP incorporation at i + 1 (PIV-5 RdRp): 0.058 ± 0.080
Inhibition (fold) vs Template A (HRV-16 RdRp [6]): ~2 fold and 2.0 fold
UTP (HRV-16 RdRp [6]): 1.0 µM
Inhibition (fold) of UTP incorporation across embedded analog (EV-71 RdRp [7]): ~9 fold
Selectivity (fold), Vmax/Km ATP over Vmax/Km analog (SARS-CoV-2 RdRp complex): 1.37 fold
Selectivity (fold), Vmax/Km ATP over Vmax/Km analog (MERS-CoV RdRp complex): 1.17 fold
Incorporated more efficiently than natural ATP counterpart (HRV-16 RdRp (3Dpol)): 20-50 fold
Incorporated more efficiently than natural ATP counterpart (EV-71 RdRp (3Dpol)): 20-50 fold
Selectivity (fold), Vmax/Km ATP over Vmax/Km analog (RSV RdRp complex): 1.58 fold
Selectivity (fold), Vmax/Km ATP over Vmax/Km analog (HMPV RdRp complex): 1.73 fold
Selectivity (fold), Vmax/Km ATP over Vmax/Km analog (PIV-5 RdRp complex): 5.05 fold
